Results as given in ChEMBL document CHEMBL1159278, “An antimitotic and cytotoxic chalcone from Fissistigma lanuginosum” (J Nat Prod, 1995).
≈ marks a conversion by molar mass, not a printed value.

Assays:
KB = experiment: Cytotoxicity against human KB cells; assay type: functional, cell-based
[1] = Inhibition of tubulin assembly into microtubules

Row | Compound | IC50 (KB) [µg/mL] | IC50 [1] [µM]
1 | COc1c(O)c(OC)c(C(=O)[C@@H]2CC=C(CCC=C(C)C)C[C@H]2c2ccccc2)c(O)c1OC [FISSISTIN] | 0.15 (≈ 0.321 µM) | –
2 | COc1c(O)c(OC)c(C(=O)[C@@H]2CC(CCC=C(C)C)=CC[C@H]2c2ccccc2)c(O)c1OC [ISOFISSISTIN] | 0.15 (≈ 0.321 µM) | –
3 | COc1c(O)c(OC)c(C(=O)/C=C/c2ccccc2)c(O)c1OC [PEDICIN] | – | 300
4 | CC[C@]1(O)C[C@@H]2CN(CCc3c([nH]c4ccccc34)[C@@](C(=O)OC)(c3cc4c(cc3OC)N(C)[C@H]3[C@@](O)(C(=O)OC)[C@H](OC(C)=O)[C@]5(CC)C=CCN6CC[C@]43[C@@H]65)C2)C1 [VINBLASTINE] | – | 4
